The target of series [1] is T1, Broad substrate specificity ATP-binding cassette transporter ABCG2 (Mus musculus, UniProt Q7TMS5).
T1 sequence (Q7TMS5 whole entry): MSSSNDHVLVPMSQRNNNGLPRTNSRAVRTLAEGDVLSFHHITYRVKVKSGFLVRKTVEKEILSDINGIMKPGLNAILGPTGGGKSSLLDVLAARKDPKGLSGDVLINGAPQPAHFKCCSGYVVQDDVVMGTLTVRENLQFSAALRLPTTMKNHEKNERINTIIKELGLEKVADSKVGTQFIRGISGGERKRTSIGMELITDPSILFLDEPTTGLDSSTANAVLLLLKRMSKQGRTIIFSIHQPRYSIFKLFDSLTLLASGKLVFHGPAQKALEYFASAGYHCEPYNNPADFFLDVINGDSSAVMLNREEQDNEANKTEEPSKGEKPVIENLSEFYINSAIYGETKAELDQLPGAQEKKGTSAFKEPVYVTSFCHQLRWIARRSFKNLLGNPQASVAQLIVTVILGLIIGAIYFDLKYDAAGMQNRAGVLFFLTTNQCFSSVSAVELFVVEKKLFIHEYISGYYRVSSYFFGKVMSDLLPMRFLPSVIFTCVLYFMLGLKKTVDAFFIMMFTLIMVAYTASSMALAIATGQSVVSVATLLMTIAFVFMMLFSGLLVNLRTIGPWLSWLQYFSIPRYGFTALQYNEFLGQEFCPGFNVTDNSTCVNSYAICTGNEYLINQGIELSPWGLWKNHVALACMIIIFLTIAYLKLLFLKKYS
Description: TP_TRANSPORTER: Flow cytometry in lymphocytes from Mdr1a/b-/- mice. It is filed as functional, cell-based. The conditions noted are these: lymphocyte. On the technique in general: A flow cytometer gives signals particle by particle.

Series [2] deals with ATP-dependent translocase ABCB1 (Homo sapiens, UniProt P08183). Description: TP_TRANSPORTER: Flow cytometry in MDR1-expressing NIH3T3 cells. It is filed as functional, cell-based. The conditions noted are these: mouse.
The target in another series is T2, Bile salt export pump (Rattus norvegicus, UniProt O70127).
T2 sequence (O70127 whole entry): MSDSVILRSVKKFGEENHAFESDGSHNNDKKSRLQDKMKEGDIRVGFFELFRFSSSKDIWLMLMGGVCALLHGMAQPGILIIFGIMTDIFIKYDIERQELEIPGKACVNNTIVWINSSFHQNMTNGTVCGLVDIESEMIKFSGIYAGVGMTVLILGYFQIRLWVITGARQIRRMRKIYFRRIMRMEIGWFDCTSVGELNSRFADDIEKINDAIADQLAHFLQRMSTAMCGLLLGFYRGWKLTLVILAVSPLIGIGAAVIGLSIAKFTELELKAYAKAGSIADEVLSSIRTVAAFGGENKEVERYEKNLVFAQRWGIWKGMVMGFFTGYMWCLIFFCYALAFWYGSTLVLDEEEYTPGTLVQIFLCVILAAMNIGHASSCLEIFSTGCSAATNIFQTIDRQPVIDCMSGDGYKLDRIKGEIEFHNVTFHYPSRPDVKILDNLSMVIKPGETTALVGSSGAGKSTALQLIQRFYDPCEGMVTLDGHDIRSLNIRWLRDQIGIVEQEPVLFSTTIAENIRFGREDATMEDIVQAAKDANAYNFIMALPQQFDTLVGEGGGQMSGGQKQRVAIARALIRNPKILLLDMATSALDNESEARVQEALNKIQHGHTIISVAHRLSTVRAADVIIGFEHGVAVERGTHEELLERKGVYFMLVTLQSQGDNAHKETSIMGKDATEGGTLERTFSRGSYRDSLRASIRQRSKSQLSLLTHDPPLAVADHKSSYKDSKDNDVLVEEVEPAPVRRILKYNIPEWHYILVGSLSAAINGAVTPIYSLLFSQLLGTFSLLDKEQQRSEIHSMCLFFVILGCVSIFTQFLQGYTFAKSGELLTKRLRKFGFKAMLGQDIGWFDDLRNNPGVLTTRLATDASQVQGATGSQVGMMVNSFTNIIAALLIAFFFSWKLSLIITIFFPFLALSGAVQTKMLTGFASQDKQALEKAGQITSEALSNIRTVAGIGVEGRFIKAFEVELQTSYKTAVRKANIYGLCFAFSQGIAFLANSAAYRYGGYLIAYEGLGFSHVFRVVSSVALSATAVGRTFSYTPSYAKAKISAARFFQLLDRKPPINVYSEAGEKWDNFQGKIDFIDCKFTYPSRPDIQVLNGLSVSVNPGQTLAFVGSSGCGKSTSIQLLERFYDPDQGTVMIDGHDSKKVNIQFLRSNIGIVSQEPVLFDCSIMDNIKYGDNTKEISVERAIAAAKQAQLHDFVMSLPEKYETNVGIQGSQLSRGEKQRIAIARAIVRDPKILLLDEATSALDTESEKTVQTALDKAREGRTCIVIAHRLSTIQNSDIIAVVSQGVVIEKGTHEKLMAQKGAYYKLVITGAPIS
Description: TP_TRANSPORTER: inhibition of taurocholate uptake (taurocholate: 2 uM, beta-sitosterol: 10 uM) in membrane vesicles of Bsep-expressing […] cells. Particulars: sf9, 10 µM. It is filed as functional, cell membranes, Membrane vesicle.

The target of series [3] is Multidrug resistance-associated protein 1 (Mus musculus, UniProt O35379). Description: TP_TRANSPORTER: Flow cytometry in lymphocytes from Mdr1a/b(-/)- mice. It is filed as functional. Particulars: lymphocyte.

These results are taken from ChEMBL document CHEMBL2073812, “Functional analysis of candidate ABC transporter proteins for sitosterol transport” (Biochim Biophys Acta, 2002).

Chain of ATP-dependent translocase ABCB1 (P08183 whole entry): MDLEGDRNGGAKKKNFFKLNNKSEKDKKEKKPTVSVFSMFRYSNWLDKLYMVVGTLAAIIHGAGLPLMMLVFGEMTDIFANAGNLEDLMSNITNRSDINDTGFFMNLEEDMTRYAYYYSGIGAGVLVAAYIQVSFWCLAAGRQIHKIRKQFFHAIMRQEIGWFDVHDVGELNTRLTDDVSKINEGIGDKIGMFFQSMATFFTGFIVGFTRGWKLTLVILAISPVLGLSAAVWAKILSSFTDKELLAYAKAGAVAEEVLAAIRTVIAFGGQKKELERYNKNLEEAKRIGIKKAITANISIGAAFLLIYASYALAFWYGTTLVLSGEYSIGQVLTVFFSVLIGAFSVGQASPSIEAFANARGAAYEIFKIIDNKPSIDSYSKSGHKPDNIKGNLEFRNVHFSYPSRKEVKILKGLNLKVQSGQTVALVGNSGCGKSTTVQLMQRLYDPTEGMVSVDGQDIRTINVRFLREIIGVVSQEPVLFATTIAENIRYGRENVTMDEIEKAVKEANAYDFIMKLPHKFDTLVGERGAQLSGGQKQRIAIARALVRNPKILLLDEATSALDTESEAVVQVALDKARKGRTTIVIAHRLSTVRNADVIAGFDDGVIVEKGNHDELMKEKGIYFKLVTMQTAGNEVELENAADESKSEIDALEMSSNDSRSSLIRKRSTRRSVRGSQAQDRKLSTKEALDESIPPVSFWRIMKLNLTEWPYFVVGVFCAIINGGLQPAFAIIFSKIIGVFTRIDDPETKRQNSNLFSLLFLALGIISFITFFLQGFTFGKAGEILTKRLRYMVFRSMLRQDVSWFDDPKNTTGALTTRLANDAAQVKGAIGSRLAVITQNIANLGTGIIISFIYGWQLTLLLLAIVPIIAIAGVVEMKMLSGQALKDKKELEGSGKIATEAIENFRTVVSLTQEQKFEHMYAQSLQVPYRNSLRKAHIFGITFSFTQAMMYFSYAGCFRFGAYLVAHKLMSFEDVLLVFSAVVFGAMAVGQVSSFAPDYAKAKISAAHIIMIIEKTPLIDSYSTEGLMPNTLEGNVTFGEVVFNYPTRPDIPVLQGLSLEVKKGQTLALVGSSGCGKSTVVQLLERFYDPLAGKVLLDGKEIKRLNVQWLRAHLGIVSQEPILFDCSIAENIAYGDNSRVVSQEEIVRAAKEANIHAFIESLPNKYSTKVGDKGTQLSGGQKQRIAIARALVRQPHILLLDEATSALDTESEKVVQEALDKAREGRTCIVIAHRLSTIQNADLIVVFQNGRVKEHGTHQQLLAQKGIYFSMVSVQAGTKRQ
Chain of Multidrug resistance-associated protein 1 (O35379 whole entry): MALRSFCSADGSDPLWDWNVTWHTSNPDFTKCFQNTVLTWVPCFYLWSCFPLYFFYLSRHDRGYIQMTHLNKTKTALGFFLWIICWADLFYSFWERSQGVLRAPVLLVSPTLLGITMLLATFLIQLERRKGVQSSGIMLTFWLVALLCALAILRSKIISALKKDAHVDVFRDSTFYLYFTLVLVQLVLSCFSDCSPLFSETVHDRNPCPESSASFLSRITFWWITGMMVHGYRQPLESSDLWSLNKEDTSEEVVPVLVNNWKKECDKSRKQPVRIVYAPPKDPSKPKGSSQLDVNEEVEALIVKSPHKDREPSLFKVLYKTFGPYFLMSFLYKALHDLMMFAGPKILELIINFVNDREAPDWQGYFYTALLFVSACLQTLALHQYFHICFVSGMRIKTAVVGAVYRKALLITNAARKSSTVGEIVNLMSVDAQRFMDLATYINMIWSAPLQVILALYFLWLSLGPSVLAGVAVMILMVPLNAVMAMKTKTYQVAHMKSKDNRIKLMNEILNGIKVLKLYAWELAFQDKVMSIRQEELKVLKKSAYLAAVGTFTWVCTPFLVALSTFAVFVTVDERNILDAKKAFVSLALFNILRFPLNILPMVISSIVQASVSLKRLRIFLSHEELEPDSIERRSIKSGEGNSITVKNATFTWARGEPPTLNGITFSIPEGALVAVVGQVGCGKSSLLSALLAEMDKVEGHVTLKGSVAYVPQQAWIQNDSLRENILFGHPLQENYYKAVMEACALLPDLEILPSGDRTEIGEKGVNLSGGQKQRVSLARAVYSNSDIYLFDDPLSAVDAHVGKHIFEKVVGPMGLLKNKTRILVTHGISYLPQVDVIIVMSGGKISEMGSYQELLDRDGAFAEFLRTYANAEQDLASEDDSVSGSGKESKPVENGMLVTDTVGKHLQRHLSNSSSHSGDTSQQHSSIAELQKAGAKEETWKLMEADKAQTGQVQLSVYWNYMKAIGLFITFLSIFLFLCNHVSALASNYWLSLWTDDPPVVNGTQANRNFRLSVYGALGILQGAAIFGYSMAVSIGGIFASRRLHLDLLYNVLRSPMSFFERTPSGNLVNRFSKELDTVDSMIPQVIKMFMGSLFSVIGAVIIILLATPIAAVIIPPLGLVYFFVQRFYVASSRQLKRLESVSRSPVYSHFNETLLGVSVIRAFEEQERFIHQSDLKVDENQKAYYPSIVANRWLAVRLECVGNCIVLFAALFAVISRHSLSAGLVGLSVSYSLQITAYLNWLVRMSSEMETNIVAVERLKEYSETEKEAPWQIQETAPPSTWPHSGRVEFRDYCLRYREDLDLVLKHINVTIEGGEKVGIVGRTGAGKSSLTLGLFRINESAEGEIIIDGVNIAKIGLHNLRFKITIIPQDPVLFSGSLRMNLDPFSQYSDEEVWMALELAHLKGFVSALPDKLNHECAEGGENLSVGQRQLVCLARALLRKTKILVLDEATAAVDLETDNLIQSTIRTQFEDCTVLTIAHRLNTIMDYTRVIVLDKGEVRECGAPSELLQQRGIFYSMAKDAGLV

On to `CC[C@H](CC[C@@H](C)[C@H]1CC[C@H]2[C@@H]3CC=C4C[C@@H](O)CC[C@]4(C)[C@H]3CC[C@]12C)C(C)C` [BETA-SITOSTEROL], for which the Activity entry was “is not a substrate [-]” in series [1], “is not a substrate [-]” in series [2], “is not an inhibitor [-]” on Bile salt export pump and “is not a substrate [-]” in series [3].
